A short description of assay [1]: Na-solution DAP test: trained panel rates saltiness of compounds in sodium solution. The assay is classed as in vivo. Details: key: DAP score; >3.1 indicates saltiness or salt enhancement. As to conditions: single compound in sodium solution; best DAP score of tested concentrations 0.1, 1 and 10 ppm; DAP score greater than 3.1 indicates saltiness or salt enhancement. Here is the method: (§1) Briefly, each individual tested compound was placed in water and in sodium solution to test saltiness and saltiness enhancement potential. Tests in water were executed in a compound concentration of 10 ppm. Tests in sodium solution were executed in compound concentrations of 0.1, 1 and 10 ppm. Two control sodium solutions with known organoleptic salt intensities were provided as references for each test. The test for individual compounds was also conducted using simple broth instead of sodium solution. A number of compound combinations identified from the Na-solution DAP test were used for the broth DAP test. Tests were executed with a trained panel of 9-12 assessors. For Na-solution DAP tests, a DAP score of greater than 3.1 indicates saltiness or salt enhancement. The DAP score can be correlated with a sodium reduction potential by subtracting 3.1 from the DAP score. […] For broth DAP tests, a DAP score of greater than 7.6 indicates saltiness or salt enhancement. The DAP score can be correlated with a sodium reduction potential by subtracting 7.6 from the DAP score.

Assay [2] in a line: Broth DAP test: trained panel rates saltiness of compounds in simple broth. As to conditions: single compound in simple broth; best DAP score of tested concentrations 0.1, 1 and 10 ppm; DAP score greater than 7.6 indicates saltiness or salt enhancement. The assay is classed as in vivo. Further details: key: DAP score; >7.6 indicates saltiness or salt enhancement in broth. Here is the method:
as §1

Molecules are shown by their SMILES.

Regarding `C=CCCCCCCC(C(=O)O)C(O)CC(=O)O` (centres unmarked) [Compound 81, a 2-octenyl-3-hydroxy-1,5-pentanedioic acid], in assay [1], the “DAP in Na-Sol.” value is listed as 3.2. Also, in assay [2], the “DAP in Broth” value is reported as 7.8.

Take `C[C@]12CC[C@H](O)C[C@H]1CC[C@@H]1[C@@H]2CC[C@]2(C)[C@@H](C3=CC(=O)OC3)CC[C@]12O` [Compound 73, Digitoxigenin]: the “DAP in Na-Sol.” value in assay [1] is on record as 3.5. The “DAP in Broth” value in assay [2] is recorded as 8.0.

Consider `COC1CC(OC2CCC3(C=O)C(CCC4C3CCC3(C)C(C5=CC(=O)OC5)CCC43O)C2)OC(C)C1OC1OC(CO)C(O)C(O)C1O` (centres unmarked) [Compound 76, Apobioside], for which, in assay [1], the “DAP in Na-Sol.” value was 3.2. For the same compound, in assay [2], the “DAP in Broth” value came out at 8.0.

Turning to `CC/C=C\C/C=C\C/C=C\CCCCCCCC(=O)O` [Compound 89, Linolenic acid], the “DAP in Na-Sol.” value in assay [1] amounted to 3.7. In assay [2], the “DAP in Broth” value is on record as 7.6.

On to `CCC=CC=CC(O)CC=CCCCCCCCC(=O)O` (centres unmarked) [Compound 86, 12-hydroxy-9,13,15-Octadecatrienoic acid], for which, in assay [1], the “DAP in Na-Sol.” value was determined as 3.9. In addition, the “DAP in Broth” value in assay [2] was determined as 8.0.

`CC(C)CNC(=O)/C=C/C=C/CCCCCC/C=C/c1ccc2c(c1)OCO2` [Compound 15, Guineensine]: the “DAP in Na-Sol.” value in assay [1] stood at 3.5. In assay [2], the “DAP in Broth” value came to 8.1.

Take `C=CCCCCCCCCCCC[C@H](O)C[C@H](O)CO` [Compound 82, 16-Heptadecene-1,2,4-triol; Avocadene]: the “DAP in Na-Sol.” value in assay [1] was determined as 3.8. For the same compound, the “DAP in Broth” value in assay [2] is 8.3.

Consider `CC(C)(O)[C@@H](O)COc1c2ccoc2cc2oc(=O)ccc12` [Compound 63, Prangol], for which the “DAP in Na-Sol.” value in assay [1] is on record as 3.5. Further, in assay [2], the “DAP in Broth” value was 8.0.

As for `CC1CCC2(OC1)OC1CC3C4CCC5CC(OC6OC(CO)C(OC7OC(CO)C(O)C(OC8OC(CO)C(O)C(OC9OCC(O)C(O)C9O)C8O)C7O)C(OC7OCC(O)C(O)C7O)C6O)CCC5(C)C4CC(=O)C3(C)C1C2C` (centres unmarked) [Compound 37], the “DAP in Na-Sol.” value in assay [1] stood at 3.7. Further, the “DAP in Broth” value in assay [2] is on record as 8.1.

In the case of `C=CCCCCCCCCCCCC(CC(O)COC(C)=O)OC(C)=O` (centres unmarked) [Compound 83, 16-Heptadecene-1,2,4-triol, 1,4-diacetate], the “DAP in Na-Sol.” value in assay [1] worked out at 4.2. The “DAP in Broth” value in assay [2] was determined as 8.1.

Take `CC(=O)O[C@@H]1C[C@H]2C(C)(C)C(=O)C=C[C@]2(C)[C@H]2CC[C@]3(C)C(=CC(=O)[C@H]3c3ccoc3)[C@@]21C` [Compound 74, Azadiradione]: the “DAP in Na-Sol.” value in assay [1] is listed as 3.2. The “DAP in Broth” value in assay [2] turned out to be 7.7.

With `CC(=O)OC1CCC2(C)C(COc3ccc4ccc(=O)oc4c3)C(C)(O)CCC2C1(C)C` (centres unmarked) [Compound 66, terpenoid coumarins], the “DAP in Na-Sol.” value in assay [1] is on record as 3.2. Also, the “DAP in Broth” value in assay [2] was 7.8.

As to `COc1cc(C[C@@H](CO)[C@H](CO)Cc2ccc(O[C@@H]3O[C@H](CO)[C@@H](O)[C@H](O)[C@H]3O)c(OC)c2)ccc1O` [Compound 48, Secoisolariciresinol; Secoisolariciresin-4-yl b-D-glucopyranoside], the “DAP in Na-Sol.” value in assay [1] came to 3.7. For the same compound, in assay [2], the “DAP in Broth” value is 7.8.

For the compound `C/C=C(\C)C(=O)O[C@H]1[C@H](O)[C@]2(CO)[C@H](O)C[C@]3(C)C(=CCC4[C@@]5(C)CC[C@H](O[C@@H]6O[C@H](C(=O)O)C(O[C@@H]7O[C@H](CO)[C@@H](O)[C@H](O)[C@H]7O)[C@H](O)[C@H]6O[C@@H]6O[C@H](CO)[C@@H](O)[C@H](O)[C@H]6O)[C@](C)(CO)C5CC[C@]43C)[C@@H]2CC1(C)C` (some centres unmarked) [Compound 34, Aesculioside A], the “DAP in Na-Sol.” value in assay [1] is recorded as 3.9. Besides, the “DAP in Broth” value in assay [2] worked out at 7.7.

Turning to `CCCCC/C=C\CCCCCCc1cc(=O)c2ccccc2n1C` [Compound 17, Evocarpine], the “DAP in Na-Sol.” value in assay [1] was 3.6. In addition, the “DAP in Broth” value in assay [2] is 8.2.

As for `CC(C)=CCOc1c2occc2cc2ccc(=O)oc12` [Compound 64, Imperatorin], the “DAP in Na-Sol.” value in assay [1] stood at 3.7. The “DAP in Broth” value in assay [2] is 7.8.

The values above are taken from patent publication US10159268B2, “Reduced sodium food products” (GENERAL MILLS, INC., priority 2013, dated 2018).
